Results: patent publication US10857201B2, “NNIF and nNIF-related peptides and related methods” (UNIVERSITY OF UTAH RESEARCH FOUNDATION, priority 2016, dated 2020)

How the values were obtained:
[1] = system: LPS-induced peritoneal NET formation; assay: Mouse model of LPS-induced peritonitis (in vivo NET formation); conditions: C57BL/6 mice, i.p. LPS
Procedure: C57/BL6 or Swiss-Webster mice were pretreated in blinded fashion with CRISPP (10 mg/kg), nNIF (10 mg/kg), or CRISPP-SCR (10 mg/kg) by i.p. injection 1 hour prior to infection (E. coli, 4.5×10^7 cfu/mouse, i.p.) or inoculation (LPS, 25 mg/kg, i.p.) (SIGMA-ALDRICH®). Control mice were injected with saline alone. The mice were sacrificed in a CO2 chamber 3 hours post-infection/inoculation, and the peritoneal fluid and membrane samples were harvested. Briefly, the abdomen was disinfected and opened in the midline without injuring the muscle. The peritoneal cavity was lavaged with sterile saline solution (1 mL) and analyzed for in vivo NET formation, bacteriology, and leukocyte accumulation. NETs in the peritoneal fluid were qualitatively and quantitatively analyzed using live cell imaging with confocal microscopy and NET-associated histone H3 release assays. NETs on the serosal surface of the peritoneal membrane were assessed quantitatively using live cell imaging, followed by standardized grid analysis of five randomly selected high-power visual fields per tissue sample (IMAGEJ™ software, NIH). Peritoneal bacterial colony forming unit (cfu) counts were quantified by permeabilizing all recovered leukocytes with 0.1% Triton X-100 for 10 minutes and performing serial dilutions and bacterial cultures on 5% sheep blood agar plates (HARDY DIAGNOSTICS™). After a 24-hour incubation, bacterial counts were determined. Total leukocyte counts in the peritoneal lavage were determined in Neubauer chambers using an optical microscope after dilution in Turk's solution (2% acetic acid). Differential leukocyte analysis was performed using a 60× oil immersion objective to assess morphology of cyto-centrifuged cells stained with May-Gruenwald-Giemsa dye. All mice were included in the final analysis.

[2] = system: C57BL/6 mice subjected to CLP; assay: Mouse model of polymicrobial sepsis, cecal ligation and puncture (CLP); conditions: 10 mg/kg i.p. 1 hour before and 6 hours after, versus nNIF-SCR
Procedure: FIG. 9B is a graph depicting C57BL/6 mice that were subjected to cecal ligation and puncture (CLP). nNIF or nNIF-SCR (10 mg/kg i.p.) was given 1 hour before and 6 hours after surgery (n≥7 in each group). Mice subjected to sham surgery were studied in parallel (n=3 in each group). Clinical illness severity scores (see Araujo C V, et al., Shock. 2016; 45 (4):393-403) were determined at 24 hours.
C57BL/6 mice were anaesthetized with ketamine/xylazine (100 mg/kg and 10 mg/kg, i.p; respectively), and cecal ligation and puncture (CLP) was performed as previously described (see Araujo C V, et al., Shock. 2016; 45 (4):393-403). nNIF (10 mg/kg) or nNIF-SCR (10 mg/kg) i.p. was given 1 hour prior to and 6 hours after CLP surgery. The animals received subcutaneous sterile isotonic saline (1 mL) for fluid resuscitation immediately after the surgery. Sham-operated mice were subjected to identical procedures except that CLP was not done. 24 hours after CLP, all animals were scored for clinical illness severity as previously described (see Araujo C V, et al., Shock. 2016; 45 (4):393-403). In this assessment, higher scores reflect increased illness severity.

[3] = system: activated human platelets and PMNs; assay: Platelet-neutrophil aggregate formation; assay type: cell-based; conditions: thrombin 0.1 U/mL, LPS 100 ng/mL; peptide 1 nM
Procedure: FIG. 6F is a graph depicting formation of platelet-neutrophil aggregates that was measured after mixing of platelets activated with thrombin (0.1 U/mL) and neutrophils activated with LPS (100 ng/mL). The dashed line indicates control aggregate formation in response to LPS stimulation of the PMNs alone. *P<0.05 for CRISPP and CRISPP-SCR compared to control. FIGS. 6A-6F are a series of graphs depicting isolated adult neutrophils or platelets that were preincubated with buffer or with CRISPP, nNIF, or CRISPP-SCR (1 nM, 1 hour for each) followed by measurement of functional responses. A minimum of three separate assays were done for each response. Error bars=SEM. Tukey's post hoc testing was applied in FIGS. 6B, 6D, 6E, and 6F.
(§1) P-selectin translocation and surface display by activated platelets (see van Velzen J F, et al., Thromb Res. 2012; 130 (1):92-8) and formation of platelet-neutrophil aggregates (see Evangelista V, et al., Blood. 1996; 88 (11):4183-94) were measured as described.

[4] = system: PMN killing of a pathogenic strain of Escherichia coli; assay: Bacterial killing assay (total, phagocytic, NET-mediated); assay type: cell-based, human; conditions: LPS-stimulated PMNs, E. coli
Procedure: FIG. 6A is a graph depicting results, after preincubation, of neutrophils that were stimulated with LPS (100 ng/mL) to trigger NET formation and incubated with a pathogenic isolate of E. coli. Total, phagocytic, and NET-mediated bacterial killing were measured (see Yost C C, et al., Blood. 2009; 113 (25):6419-27). One way ANOVA with Bonferonni's post hoc testing; *P<0.05, **P<0.01.
NET-mediated and phagocytic bacterial killing by primary human PMNs was determined as previously described (see Yost C C, et al., Blood. 2009; 113 (25):6419-27).
Without being bound by any specific theory, it was hypothesized that placentally expressed HTRA1, a serine protease, regulates the formation of NET-inhibitory peptides through cleavage of AAT. To test this hypothesis, term and preterm placenta were assessed for HTRA1 expression via western blotting. HTRA1 and AAT plasma expression from term and preterm infants and adults were determined by ELISA. Bioactive (0.5 μg) or placental eluted HTRA1 was incubated with AAT (8 μM) for 18 hours at 37° C. Carboxy-terminus fragments of AAT were detected using western blotting and mass spectrometry. The reaction products were incubated for 1 hour with PMNs isolated from healthy adults prior to LPS stimulation (100 ng/mL) and assessed for NET formation using live cell imaging. Reactive oxygen species were assessed using flow cytometry, chemotaxis using a modified Boyden chamber assay, and bacterial killing using E. coli.

platelets = assay: P-selectin surface translocation on thrombin-activated platelets (flow cytometry); assay type: cell-based, human; conditions: thrombin 0.1 U/mL; peptide 1 nM
Procedure: FIG. 6E is a graph depicting surface translocation of P-selectin on platelets activated by thrombin (0.1 U/mL) that was measured by flow cytometry. The dashed line indicates surface P-selectin on unstimulated platelets.
as §1

Substance | LPS-induced peritoneal NET formation [1] | clinical illness scores at 24 hours [2] | formation of heterotypic aggregates by activated platelets and PMNs [3] | extracellular NET-mediated bacterial killing [4] | phagocytic intracellular killing [4] | total bacterial killing [4] | surface translocation of P-selectin by thrombin-stimulated platelets (platelets)
KFNKPFVFLMIEQNTKSPLFMGKVVNPTQ (listed as Homo sapiens) [nNIF] | inhibited | lower |  |  |  |  | 
M_IPPEVKFNKPFVFLMIDQNTKVPLFMGK [CRISPP, consensus peptide based on factors present in the blood of patients with cancer] | inhibited |  | does not inhibit | depressed | not altered | depressed | does not inhibit
